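Results reflect a 48-hour exposure of cells in 96-well plates to compound at five concentrations. The concentration for 50% growth inhibition is given as GI50.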 The source made the active and inactive calls. Cut-off read from the data, not from the text of the source: active = GI50 up to about 1.1 µM and inactive = higher.
Legend:
Test in all cases: NCI tumour cell line growth inhibition, 48 h
[1] = test system: MOLT-4
[2] = test system: CAKI-1
[3] = test system: Malme-3M
[4] = test system: HCT-15
[5] = test system: SN12C
[6] = test system: PC-3
[7] = test system: OVCAR-5
[8] = test system: MCF7
[9] = test system: A549
[10] = test system: OVCAR-8
[11] = test system: SF-295
[12] = test system: UO-31
[13] = test system: EKVX
[14] = test system: U-251
[15] = test system: SNB-19
[16] = test system: M14
[17] = test system: BT-549
[18] = test system: MDA-MB-231
[19] = test system: CCRF-CEM
[20] = test system: HOP-92
[21] = test system: OVCAR-4
[22] = test system: NCI/ADR-RES
[23] = test system: SW-620
[24] = test system: SF-268
[25] = test system: DU-145
[26] = test system: MDA-N
[27] = test system: NCI-H226
[28] = test system: UACC-62
[29] = test system: HL-60
[30] = test system: SK-MEL-2
[31] = test system: KM12
[32] = test system: 786-0
[33] = test system: SR
[34] = test system: NCI-H522
[35] = test system: SNB-75
[36] = test system: NCI-H460
[37] = test system: OVCAR-3
[38] = test system: SK-MEL-5
[39] = test system: UACC-257
[40] = test system: A498
[41] = test system: T47D
[42] = test system: SF-539
[43] = test system: TK-10
[44] = test system: HCC 2998
[45] = test system: COLO 205
[46] = test system: LOX IMVI
[47] = test system: SK-MEL-28
[48] = test system: IGROV-1
[49] = test system: Hs-578T
[50] = test system: MDA-MB-435
[51] = test system: RPMI-8226
[52] = test system: K562
[53] = test system: ACHN
[54] = test system: RXF 393
[55] = test system: HT-29
[56] = test system: NCI-H23
[57] = test system: HOP-62
[58] = test system: HCT-116
[59] = test system: SK-OV-3

With `COc1ccc2c(=O)c3cc([N+](=O)[O-])ccc3n(C)c2c1` the GI50 [1] was > 100 µM (inactive), the GI50 [2] was > 100 µM (inactive) and the GI50 [3] was > 100 µM (inactive). For the same molecule, the GI50 [4] was over 100 µM, the GI50 [5] was > 100 µM (inactive) and the GI50 [6] was > 100 µM (inactive). For the same molecule, the GI50 [7] was > 100 µM (inactive), the GI50 [8] was > 100 µM (inactive) and the GI50 [9] was > 100 µM (inactive). For the same molecule, the GI50 [10] was > 100 µM (inactive), the GI50 [11] was > 100 µM (inactive) and the GI50 [12] was > 100 µM (inactive). The GI50 [13] was 6.37 µM (inactive), the GI50 [14] was > 100 µM (inactive) and the GI50 [15] was > 100 µM (inactive). For the same molecule, the GI50 [16] was > 100 µM (inactive), the GI50 [17] was > 100 µM (inactive) and the GI50 [18] was > 100 µM (inactive). For the same molecule, the GI50 [19] was > 100 µM (inactive), the GI50 [20] was > 100 µM (inactive) and the GI50 [21] was > 100 µM (inactive). The GI50 [22] was > 100 µM (inactive), the GI50 [23] was > 100 µM (inactive) and the GI50 [24] was > 100 µM (inactive). For the same molecule, the GI50 [25] was > 100 µM (inactive), the GI50 [26] was > 100 µM (inactive) and the GI50 [27] was > 100 µM (inactive). For the same molecule, the GI50 [28] was > 100 µM (inactive), the GI50 [29] was > 100 µM (inactive) and the GI50 [30] was > 100 µM (inactive). For the same molecule, the GI50 [31] was > 100 µM (inactive), the GI50 [32] was > 100 µM (inactive) and the GI50 [33] was > 100 µM (inactive). For the same molecule, the GI50 [34] was > 100 µM (inactive), the GI50 [35] was > 100 µM (inactive) and the GI50 [36] was > 100 µM (inactive). For the same molecule, the GI50 [37] was > 100 µM (inactive), the GI50 [38] was > 100 µM (inactive) and the GI50 [39] was > 100 µM (inactive). For the same molecule, the GI50 [40] was > 100 µM (inactive), the GI50 [41] was > 100 µM (inactive) and the GI50 [42] was > 100 µM (inactive). The GI50 [43] was > 100 µM (inactive), the GI50 [44] was > 100 µM (inactive) and the GI50 [45] was > 100 µM (inactive). The GI50 [46] was > 100 µM (inactive), the GI50 [47] was > 100 µM (inactive) and the GI50 [48] was > 100 µM (inactive). For the same molecule, the GI50 [49] was > 100 µM (inactive), the GI50 [50] was > 100 µM (inactive) and the GI50 [51] was > 100 µM (inactive). For the same molecule, the GI50 [52] was > 100 µM (inactive), the GI50 [53] was > 100 µM (inactive) and the GI50 [54] was > 100 µM (inactive).

With `COc1ccc(-c2c(=O)[nH]n3c(=S)[nH]c(-c4ccccc4)nc23)cc1OC` the GI50 [1] was 8.51 µM (inactive), the GI50 [2] was 24.3 µM (inactive) and the GI50 [3] was 19.2 µM (inactive). The GI50 [4] was 17.3 µM, the GI50 [5] was 16.2 µM (inactive) and the GI50 [6] was 31.3 µM (inactive). The GI50 [7] was 20.7 µM (inactive), the GI50 [8] was 15.8 µM (inactive) and the GI50 [9] was 31.7 µM (inactive). The GI50 [10] was 20.8 µM (inactive), the GI50 [11] was 20.8 µM (inactive) and the GI50 [12] was 17 µM (inactive). The GI50 [13] was 22.5 µM (inactive), the GI50 [14] was 17.5 µM (inactive) and the GI50 [15] was 15 µM (inactive). For the same molecule, the GI50 [16] was 19.9 µM (inactive), the GI50 [17] was 17.4 µM (inactive) and the GI50 [18] was 28.6 µM (inactive). The GI50 [19] was 9.1 µM (inactive), the GI50 [20] was 17.7 µM (inactive) and the GI50 [21] was 21 µM (inactive). For the same molecule, the GI50 [22] was 21.3 µM (inactive), the GI50 [23] was 30.1 µM (inactive) and the GI50 [24] was 19.4 µM (inactive). The GI50 [25] was 23 µM (inactive), the GI50 [26] was 14.8 µM (inactive) and the GI50 [27] was 19.2 µM (inactive). The GI50 [28] was 19.1 µM (inactive), the GI50 [29] was 18 µM (inactive) and the GI50 [31] was 17.7 µM (inactive). For the same molecule, the GI50 [32] was 17.2 µM (inactive), the GI50 [33] was 6.9 µM (inactive) and the GI50 [34] was 17.5 µM (inactive). The GI50 [35] was 24.5 µM (inactive), the GI50 [36] was 29 µM (inactive) and the GI50 [55] was 21.6 µM (inactive). For the same molecule, the GI50 [56] was 21.3 µM (inactive), the GI50 [38] was 16.4 µM (inactive) and the GI50 [39] was 24 µM (inactive). For the same molecule, the GI50 [40] was 18.1 µM (inactive), the GI50 [41] was 20.2 µM (inactive) and the GI50 [43] was 22.6 µM (inactive). For the same molecule, the GI50 [44] was 18.5 µM (inactive), the GI50 [45] was 16.8 µM (inactive) and the GI50 [57] was 30 µM (inactive). The GI50 [46] was 17.2 µM (inactive), the GI50 [47] was 21.3 µM (inactive) and the GI50 [48] was 23.8 µM (inactive). For the same molecule, the GI50 [49] was 29.7 µM (inactive), the GI50 [50] was 18.9 µM (inactive) and the GI50 [52] was 12.9 µM (inactive). For the same molecule, the GI50 [53] was 23.3 µM (inactive), the GI50 [58] was 16.6 µM (inactive) and the GI50 [54] was 17.7 µM (inactive). For the same molecule, the GI50 [59] was 25.1 µM (inactive).
